“And” between values parts separate entries of the source, which are not always exact repeats. Equal entries are not always repeated. “Also recorded” adds a separate entry of the source. Where two headings read alike, the source gives them in different places.
Key:
PLK1 = PLK1 (Homo sapiens, UniProt P53350); assay: IMAP PLK1 TR-FRET counter-screen; type: biochemical; settings: read-out: IC50 PLK1 (Ave ± SD)
Method: (§1) Automated, highthroughput screening (HTS) formatted IMAP-based AKT fluorescent polarization assay (AKT FP), and PLK1 and CAK TR-FRET assays were used to assess the specificity of the PKD analogs as previously described. See Sharlow, E. R., et. al., J. Biol Chem, 283: 33516-33526, (2008). For the PLK2 IMAP TR-FRET assay, PLK2 kinase reactions were generated by the stepwise addition of a 3-fold excess concentration of substrate/ATP (1650 nM/105 μM), analog, and PLK2 enzyme (1.02 milliunits/μL). PLK2 kinase reactions were incubated for 150 min at room temperature and stopped with the addition of an IMAP binding reagent supplemented with terbium. Assay plates were then incubated overnight. Analysis was performed as described in the literature. Id.
(§2) The PLK2 substrate (FAM-[…]) was obtained from Molecular Devices (Sunnyvale, Calif.). H-89 was used as a positive inhibitory control compound in the assays. A 10 point concentration range for each compound to be tested was used to determine IC50 values. The maximum concentration of a particular compound used in this assay was either 50 μM, or 100 μM, depending on the solubility of the individual compounds. Each experiment was assayed in triplicate and data is represented as average IC50±SD. The IC50 determinations for each analog evaluated in the IMAP (PLK2, PLK1, CAK, and AKT) formats were conducted within the linear range of the captured signal readout.

AKT = assay: IMAP-based AKT fluorescent polarization counter-screen; type: biochemical; settings: read-out: IC50 AKT (Ave ± SD)
Method: as §1, §2

PKD1 [1] = molecular target: T1, PKD1 (Homo sapiens, UniProt Q15139); assay: Cellular inhibition of PMA-induced PKD1 S916 autophosphorylation in LNCaP cells (Western blot densitometry); type: cell-based; parameters: endogenous in cells; host or cells: LNCaP prostate cancer cells; settings: for IC50: PKD1 autophosphorylation at S916 in LNCaP cells
T1 sequence (Q15139 1-912): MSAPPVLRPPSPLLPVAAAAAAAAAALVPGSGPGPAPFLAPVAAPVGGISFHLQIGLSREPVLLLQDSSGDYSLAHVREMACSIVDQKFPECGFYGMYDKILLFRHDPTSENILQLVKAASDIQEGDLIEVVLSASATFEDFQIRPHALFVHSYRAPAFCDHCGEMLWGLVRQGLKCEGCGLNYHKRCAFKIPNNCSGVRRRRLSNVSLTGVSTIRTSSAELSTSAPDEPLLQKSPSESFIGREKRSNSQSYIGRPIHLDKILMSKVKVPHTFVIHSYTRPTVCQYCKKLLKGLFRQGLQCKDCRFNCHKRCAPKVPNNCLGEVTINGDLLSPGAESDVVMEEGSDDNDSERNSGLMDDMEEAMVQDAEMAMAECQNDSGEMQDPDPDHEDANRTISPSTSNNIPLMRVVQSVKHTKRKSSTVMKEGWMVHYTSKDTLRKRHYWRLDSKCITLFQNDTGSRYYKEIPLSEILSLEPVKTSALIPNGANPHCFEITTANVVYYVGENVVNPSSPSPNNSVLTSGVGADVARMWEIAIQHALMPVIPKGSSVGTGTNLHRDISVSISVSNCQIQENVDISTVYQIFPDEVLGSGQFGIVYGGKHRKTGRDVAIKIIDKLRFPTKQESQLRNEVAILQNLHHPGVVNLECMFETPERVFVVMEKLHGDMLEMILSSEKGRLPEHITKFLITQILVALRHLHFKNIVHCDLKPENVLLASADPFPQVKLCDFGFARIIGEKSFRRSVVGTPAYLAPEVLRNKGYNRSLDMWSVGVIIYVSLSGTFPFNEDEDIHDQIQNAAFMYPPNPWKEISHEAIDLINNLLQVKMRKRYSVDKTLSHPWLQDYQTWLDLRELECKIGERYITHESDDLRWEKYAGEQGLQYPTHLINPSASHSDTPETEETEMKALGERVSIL
Method: The compound to be tested was dissolved in DMSO at an initial concentration of 10 mM. LNCaP prostate cancer cells were pre-treated with DMSO or increasing concentrations of the compound for 45 min, followed by treatment with or without 100 nM phorbol 12-myristate 13-acetate (PMA), an activator of PKD, for 20 min. The cells were harvested for Western blot analysis.
Briefly, cells were lysed in lysis buffer containing 200 mM Tris-HCl, pH 7.4, 100 μM 4-(2-aminoethyl)benzenesulfonyl fluoride, 1 mM EGTA, and 1% Triton X-100. Protein concentration was determined using the BCA Protein Concentration Assay reagent kit (Pierce). Equal amounts of protein were subjected to SDS-PAGE followed by electrotransfer to nitrocellulose membranes. Membranes were blocked with 5% nonfat milk in Tris-buffered saline and then probed with primary antibodies for p-S916-PKD1 (Millipore), p-S744/748-PKD1 (Cell Signaling Technology), or GAPDH (Enzo), followed by anti-mouse or anti-rabbit secondary antibodies conjugated to horseradish peroxidase (Bio-Rad). The bands were detected by incubating with the enhanced chemiluminescence (ECL) Western blotting detection reagent (Amersham Biosciences) and exposing to X-ray films.

CAK (CDK7) = CAK (CDK7) (Homo sapiens, UniProt P50613); assay: IMAP CAK TR-FRET counter-screen; type: biochemical; settings: read-out: IC50 CAK(CDK7) (Ave ± SD)
Sequence of CAK (CDK7) (P50613 whole entry, species assumed): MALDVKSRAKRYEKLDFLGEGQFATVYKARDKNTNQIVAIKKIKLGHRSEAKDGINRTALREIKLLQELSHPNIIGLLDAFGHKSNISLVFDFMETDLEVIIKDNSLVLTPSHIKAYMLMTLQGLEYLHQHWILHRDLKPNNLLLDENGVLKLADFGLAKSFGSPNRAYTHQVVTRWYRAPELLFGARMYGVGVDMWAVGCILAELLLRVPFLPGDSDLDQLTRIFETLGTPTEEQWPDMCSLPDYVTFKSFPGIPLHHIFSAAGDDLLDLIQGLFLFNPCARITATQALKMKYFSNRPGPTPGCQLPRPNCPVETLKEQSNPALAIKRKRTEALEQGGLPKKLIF
Sequence of CAK (CDK7) (P51946 whole entry partner, species assumed): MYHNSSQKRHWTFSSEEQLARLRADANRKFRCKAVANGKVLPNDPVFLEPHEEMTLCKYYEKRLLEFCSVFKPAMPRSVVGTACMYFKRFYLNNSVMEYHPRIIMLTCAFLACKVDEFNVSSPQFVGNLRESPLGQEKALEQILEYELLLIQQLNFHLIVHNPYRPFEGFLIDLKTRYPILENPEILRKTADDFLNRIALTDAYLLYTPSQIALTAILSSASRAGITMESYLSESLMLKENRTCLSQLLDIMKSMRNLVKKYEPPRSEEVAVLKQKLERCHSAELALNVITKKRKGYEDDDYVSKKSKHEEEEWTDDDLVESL
Sequence of CAK (CDK7) (P51948 whole entry partner, species assumed): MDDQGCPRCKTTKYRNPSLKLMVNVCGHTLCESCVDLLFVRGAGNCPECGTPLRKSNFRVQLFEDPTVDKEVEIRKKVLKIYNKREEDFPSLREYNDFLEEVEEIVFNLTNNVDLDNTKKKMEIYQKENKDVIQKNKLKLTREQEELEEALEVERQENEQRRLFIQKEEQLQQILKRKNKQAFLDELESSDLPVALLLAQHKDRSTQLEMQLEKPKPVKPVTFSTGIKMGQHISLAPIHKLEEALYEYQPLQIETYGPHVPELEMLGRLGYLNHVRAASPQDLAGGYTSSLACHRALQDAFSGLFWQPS
Method: as §1, §2

PLK2 = PLK2 (Homo sapiens, UniProt Q9NYY3); assay: PLK2 IMAP TR-FRET counter-screen; type: biochemical; settings: read-out: IC50 PLK2 (Ave ± SD)
Sequence of PLK2 (Q9NYY3 whole entry, species assumed): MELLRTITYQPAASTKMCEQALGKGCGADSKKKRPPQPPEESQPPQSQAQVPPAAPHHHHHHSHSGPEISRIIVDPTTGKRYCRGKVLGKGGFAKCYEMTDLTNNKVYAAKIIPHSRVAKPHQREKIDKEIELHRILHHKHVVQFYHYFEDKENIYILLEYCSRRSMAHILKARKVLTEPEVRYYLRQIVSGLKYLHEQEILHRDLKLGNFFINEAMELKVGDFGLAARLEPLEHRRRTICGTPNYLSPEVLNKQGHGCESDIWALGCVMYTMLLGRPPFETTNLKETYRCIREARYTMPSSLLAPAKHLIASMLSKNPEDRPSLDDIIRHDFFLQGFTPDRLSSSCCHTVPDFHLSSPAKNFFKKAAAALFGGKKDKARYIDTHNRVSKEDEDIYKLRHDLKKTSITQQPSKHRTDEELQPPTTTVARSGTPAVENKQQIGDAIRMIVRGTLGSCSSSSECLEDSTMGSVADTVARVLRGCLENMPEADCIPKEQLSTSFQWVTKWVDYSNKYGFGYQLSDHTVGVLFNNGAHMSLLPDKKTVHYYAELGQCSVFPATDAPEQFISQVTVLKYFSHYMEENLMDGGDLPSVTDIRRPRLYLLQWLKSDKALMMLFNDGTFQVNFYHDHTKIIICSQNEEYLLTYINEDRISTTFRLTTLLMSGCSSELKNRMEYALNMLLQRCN
Method: as §1, §2

[2] = molecular target: T2, purified recombinant human PKD1 (Homo sapiens, UniProt Q15139); assay: radiometric PKD kinase activity assay; type: biochemical
T2 sequence (Q15139 1-912): T1 sequence (Q15139 1-912)
Method: The radiometric PKD kinase assay was carried out by co-incubating 0.5 μCi γ-32P-ATP (PerkinElmer, Boston, Mass.), 20 μM ATP, 50 ng purified recombinant human PKD (PKD1, PKD2, PKD3) proteins, and 2.5 μg Syntide-2 (Sigma) in 50 μl kinase buffer that contains 50 mM Tris-HCl, pH 7.5, 4 mM MgCl2, 10 mM β-mercaptoethanol. The reaction was carried out under sub-saturation conditions, such that the initial rate was within linear kinetic range. The reaction mixture was incubated at 30° C. for 10 min, followed by spotting 25 μl of the mix onto a Whatman P81 filter paper (Whatman Inc, Clifton, N.J.). The filter papers were then washed three times in 0.5% phosphoric acid, air-dried, and counted using a Beckman LS6500 multi-purpose scintillation counter (Beckman, Fullerton, Calif.).

[3] = stability in protic solvents; type: physicochemical
PKD1 [4] = molecular target: T1, PKD1; assay: IMAP-FP PKD1 assay; type: biochemical
Description: See Sharlow, E. R., et. al., J Biol Chem, 283: 33516-33526, (2008). The assay established the concentration of inhibitor that is required to reduce PKD1 activity by 50% (IC50), as shown in Table 2 above.

[5] = radiometric kinase activity assay, in vitro, read-out: IC50 PKD1
[6] = read-out: IC50 radiometric PKD1

Sequence of PLK1 (P53350 whole entry, species assumed): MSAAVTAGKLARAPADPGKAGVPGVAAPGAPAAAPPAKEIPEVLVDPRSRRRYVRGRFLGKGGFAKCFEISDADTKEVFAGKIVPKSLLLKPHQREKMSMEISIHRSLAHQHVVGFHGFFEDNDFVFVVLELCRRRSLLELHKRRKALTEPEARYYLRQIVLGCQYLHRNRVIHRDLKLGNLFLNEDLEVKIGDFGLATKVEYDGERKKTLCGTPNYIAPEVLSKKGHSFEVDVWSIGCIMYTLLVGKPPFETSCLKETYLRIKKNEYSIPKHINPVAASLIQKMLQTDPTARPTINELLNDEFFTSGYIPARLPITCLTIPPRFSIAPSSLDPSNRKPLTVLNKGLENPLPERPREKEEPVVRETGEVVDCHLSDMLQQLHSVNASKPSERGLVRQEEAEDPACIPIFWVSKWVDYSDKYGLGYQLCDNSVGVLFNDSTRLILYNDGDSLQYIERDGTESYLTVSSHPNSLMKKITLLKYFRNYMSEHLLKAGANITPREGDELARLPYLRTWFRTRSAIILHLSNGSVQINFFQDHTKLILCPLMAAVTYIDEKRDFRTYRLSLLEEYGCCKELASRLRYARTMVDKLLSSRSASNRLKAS

| IC50 [2, 6] [µM] | stability in protic solvents [3] | PKD inhibition, in words [2] | melting point | IC50 (PKD1 [4]) [µM] | Compound | IC50 (PLK1) [µM] | IC50 (AKT) [µM] | cellular IC50 fold lower than CID755673 (PKD1 [1]) [fold] | IC50 (PKD1 [1]) | IC50 (CAK (CDK7)) [µM] | IC50 (PLK2) [µM] | fold more potent than CID755673 (in vitro PKD1 IC50) [2] [fold] | IC50 [2, 5] [µM] | cellular PKD1 inhibition, in words (PKD1 [1]; PMA-induced PKD1 autophosphorylation at S916, LNCaP) |
| --- | --- | --- | --- | --- | --- | --- | --- | --- | --- | --- | --- | --- | --- | --- |
| 25.3 | spontaneously degrade in protic solvents | only weak inhibitory effect | – | – | O=C1NCCSc2c1sc1cnc(O)nc21 [kmg-NB4-69A, 2-Hydroxy-7H,8H,9H-1,4-thiazepino[7′,6′-5,4]thiopheno[3,2-d]pyrimidin-6-one] | – | – | – | – | – | – | – | – | – |
| 0.12 ± 0.03 | – | potent nanomolar inhibitor | 308 °C (dec.) | – | COc1ncc2sc3c(c2n1)SCCNC3=O [kmg-NB4-23, 2-Methoxy-7H,8H,9H-1,4-thiazepino[7′,6′-5,4]thiopheno[3,2-d]pyrimidin-6-one] | > 100 | > 100 | – | 6.8 ± 1.3 µM | > 100 | > 100 | – | 0.124 | – |
| 0.08 ± 0.01 | – | – | 193 °C (dec.) | – | [N-]=[N+]=Nc1ccc2sc3c(c2c1)SCCNC3=O [mcf292-08, 3,4-Dihydro-9-azido-[1]benzothieno[2,3-f]-1,4-thiazepin-5(2H)-one] | > 50 | > 50 | – | 2.2 µM and 2.17 µM | > 50 | > 50 | – | 0.0749 | – |

The next lines start with the compound.

| Compound | IC50 [2, 6] [µM] | stability in protic solvents [3] | PKD inhibition, in words [2] | melting point | IC50 (PKD1 [4]) [µM] | IC50 (PLK1) [µM] | IC50 (AKT) [µM] | cellular IC50 fold lower than CID755673 (PKD1 [1]) [fold] | IC50 (PKD1 [1]) | IC50 (CAK (CDK7)) [µM] | IC50 (PLK2) [µM] | fold more potent than CID755673 (in vitro PKD1 IC50) [2] [fold] | IC50 [2, 5] [µM] | cellular PKD1 inhibition, in words (PKD1 [1]; PMA-induced PKD1 autophosphorylation at S916, LNCaP) |
| --- | --- | --- | --- | --- | --- | --- | --- | --- | --- | --- | --- | --- | --- | --- |
| O=C1NCCSc2c1sc1ccc(O)cc21 [kb-NB142-70, 3,4-Dihydro-9-hydroxy-[1]benzothieno[2,3-f]-1,4-thiazepin-5(2H)-one] | – | – | – | – | – | 17 ± 7.7 | > 100 | 5 | 2.2 µM | 12 ± 0.6 | 39 ± 3.4 | ~7 | 0.0283 ± 0.0023 | – |
| COc1ccc2sc3c(c2c1)SCCNC3=O [kb-NB165-09, 3,4-Dihydro-9-methoxy-[1]benzothieno[2,3-f]-1,4-thiazepin-5(2H)-one] | – | – | – | – | – | > 50 | > 50 | – | 3.1 ± 0.5 µM | 17.1 ± 13.6 | > 50 | – | 0.0825 ± 0.0046 | – |
| COc1ccc2sc3c(c2c1)SCCCNC3=O [kb-NB184-02, 2,3,4,5-Tetrahydro-10-methoxybenzo[b]thieno[2,3-f]-1,5-thiazocin-6-one] | 0.19 ± 0.03 | – | – | – | – | > 50 | > 100 | – | 18.6 ± 2 µM | 9 ± 4.1 | > 50 | – | 0.193 ± 0.027 | – |
| O=C1NCCCc2c1[nH]c1ccc(O)cc21 [kb-NB123-57, 3,4,5,10-Tetrahydro-7-hydroxy-azepino[3,4-b]indol-1(2H)-one] | – | – | – | – | 2.14 ± 0.12 | > 100 | > 100 | – | > 50 µM | 39.2 ± 10.2 | > 100 | – | 0.13 | no significant cellular activity; also recorded: weaker inhibition |
| O=C1NCCCSc2c1sc1ccc(O)cc21 [kb-NB165-92, 2,3,4,5-Tetrahydro-10-hydroxybenzo[b]thieno[2,3-f]-1,5-thiazocin-6-one] | – | – | – | – | – | 13 ± 7.7 | > 50 | – | 2.6 µM and 2.56 µM | 11 ± 3.3 | 28 ± 3.1 | – | 0.111 ± 0.006 | – |

— US9840515B2, “Protein kinase D inhibitors” (University of Pittsburgh—Of the Commonwealth System of …, priority 2010, dated 2017)
